In patent US11413278B2, “Compounds and methods for promoting stress resistance” (priority 2015, dated 2022):
pEC50: −log10 of the molar value. Where two headings read alike, the source gives them in different places.

Experiments:
WI-38 cells [1] = assay: Propidium iodide (PI) cell-death imaging upon H2O2 stress; format: cell-based, human; settings: for cytotoxicity at 10 µM: Homo sapiens, WI-38
[2] = tested on: human dermal fibroblast (HDF) primary cells; assay: H2O2-resistance in primary human dermal fibroblasts; format: cell-based; settings: for fold induction at 10 µM: Homo sapiens
FOXO3 = assay: qPCR analysis of FOXO3-regulated genes; format: cell-based, human; settings: for fold induction at 10 µM: Homo sapiens
In short: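 WI-38 cells treated with compound at 10 μM for 24 h, followed by Cells-to-Ct RT-qPCR of FOXO3 target genes normalised to B2M, PPIA and GAPDH. FOXO3 or NRF2 dependence tested by prior 10 nM siRNA knockdown (36 h transfection, compound added ~24 h after replating).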

C. elegans = format: in vivo, Caenorhabditis elegans; settings: in vivo
Procedure: The worms were treated with the small molecules in liquid, with H2O2 (500 μM final concentration) added on day 4 of adulthood, and scored for viability everyday
FUdR was used to block progeny production. The molecules were analyzed in 96-well plates, with 4 wells for each small molecule. Multiple control wells with DMSO (0.2% final concentration) were included. […] Day 1 adults were transferred onto mini-plates, seeded with OP50 bacteria (UV-irradiated, kanamycin-treated) and supplemented with small molecules (˜60 μM final concentration, 0.2% DMSO). Worms were scored every other day. Cumulative survival was analyzed using the STATA software (log-rank test). […] The worms were treated with the small molecules in liquid, with H2O2 (500 μM final concentration) added on day 4 of adulthood, and scored for viability every day.

[3] = Summary score for characterization of 38 core set hits
Procedure: 38 “core set” small molecules are listed and are assigned a score, based on the result for each individual characterization. From our small molecule screen for H2O2-resistance, we isolated 61 top hits. […] Specifically, a 2-point score was assigned to the most well-known and prominent longevity-related phenotypes, such as multiplex resistance, activation of FOXO3 and/or NRF2, and down-regulation of mTOR. Small molecules were also analyzed for their ability to extend C. elegans' lifespan in 4 to 6 independent trials, and the lifespan score scale is from 0 to 2: 0 for no obvious effects, 1 for lifespan extension observed in 2 trials, 2 for observed in more than 2 trials. Certain molecules appeared to have DNA-damaging effects and/or potential cell-toxicity in cultured human cells, and they receive a negative point.

WI-38 cells [4] = tested on: WI-38 cells

**Q.** For `COc1cccc(/C=C2\CN(C)C/C(=C\c3cccc(OC)c3OC)C2=O)c1OC` [O23], which “Assay 7: H2O2-resistant, at 10 uM, validated by propidium iodide (PI) cell-death imaging” value (WI-38 cells [1]; 10 uM, w/H2O2, 3 hrs/4 hrs/5 hrs, YES/NO) is on record?
**A.** YES

**Q.** What about the cytotoxicity at 10 µM (WI-38 cells [1]; H2O2 3 hrs, 10 uM, n = 6, negative control 5.44% ± 0.79%, read-out: Percentage of propidium iodide-positive dead cells (under H2O2 stress treatment), 3 hrs) of the same compound?
**A.** 5.65%

**Q.** And the cytotoxicity at 10 µM (WI-38 cells [1]; H2O2 4 hrs, 10 uM, n = 6, negative control 16.81% ± 1.42%, read-out: Percentage of propidium iodide-positive dead cells (under H2O2 stress treatment), 4 hrs)?
**A.** 4.76%

**Q.** And the cytotoxicity at 10 µM (WI-38 cells [1]; H2O2 5 hrs, 10 uM, n = 6, negative control 22.50% ± 1.53%, read-out: Percentage of propidium iodide-positive dead cells (under H2O2 stress treatment), 5 hrs)?
**A.** 8%

**Q.** And the cytotoxicity at 10 µM (WI-38 cells [1]; pre-treatment at 10 uM, 3.5 hours of H2O2, DMSO control 27.4% ± 6.5%, */**/*** = reduced by one/two/three standard deviations, read-out: Percentage of propidium iodide-positive dead cells (under H2O2 stress treatment), at 10 uM)?
**A.** 10.2%

**Q.** What about the fold induction at 10 µM ([2]; Experiment 1, HDF cells, read-out: Experiment 1, HDF cells (under H2O2 stress treatment), at 10 uM (fold change)) of the same compound?
**A.** 1.68

**Q.** What about the fold induction at 10 µM ([2]; Experiment 2, HDF cells, read-out: Experiment 2, HDF cells (under H2O2 stress treatment), at 10 uM (fold change)) of the same compound?
**A.** 52.4

**Q.** And the “Assay 6: H2O2-resistant, at 10 uM, human dermal fibroblast (HDF) primary cells” value ([2]; YES/NO)?
**A.** YES

**Q.** What about the “Induction of at least two of five FOXO3-regulated genes (SOD2, GADD45A, CAT, DDB1, TXNIP)” value (FOXO3; 10 μM, 24 hrs, WI-38) of the same compound?
**A.** induce FOXO3-regulated genes

**Q.** And the “SOD2 expression, normalized fold change (FOXO3-regulated gene)” value (FOXO3; 10 μM, 24 hrs, WI-38 cells, qPCR, normalized to B2M, n = 4)?
**A.** SOD2 2.04 fold

**Q.** What about the “E = Potential FOXO3 Activation” value (FOXO3; 2-point score) of the same compound?
**A.** 2

**Q.** What about the “Potential FOXO3 Activation (>=2 target genes induced, by >=1.5-fold)” value (FOXO3; Assay 11(n)) of the same compound?
**A.** YES

**Q.** What about the fold induction at 10 µM (FOXO3; 24 h, Assay 10(m), at 10 uM, qPCR, read-out: Induction of FOXO3-regulated genes: GADD45A normalized fold-change) of the same compound?
**A.** 7.22

**Q.** What about the fold induction at 10 µM (FOXO3; 24 h, Assay 10(m), at 10 uM, qPCR, read-out: Induction of FOXO3-regulated genes: SOD2 normalized fold-change) of the same compound?
**A.** 2.04

**Q.** And the fold induction at 10 µM (FOXO3; 24 h, Assay 10(m), at 10 uM, qPCR, read-out: Induction of FOXO3-regulated genes: TXNIP normalized fold-change)?
**A.** 0.07

**Q.** And the fold induction at 10 µM (FOXO3; 10 μM, 24 hrs, WI-38 cells, qPCR, normalized to B2M, n = 4, read-out: GADD45A expression, normalized fold change (FOXO3-regulated gene))?
**A.** 7.22

**Q.** What about the fold induction at 10 µM (FOXO3; 10 μM, 24 hrs, WI-38 cells, qPCR, normalized to B2M, n = 4, read-out: TXNIP expression, normalized fold change (FOXO3-regulated gene)) of the same compound?
**A.** 0.07

**Q.** And the fold induction at 10 µM (FOXO3; WI-38 cells, 10 μM, 24 hrs, n=4, qPCR normalized by B2M, read-out: DDB1 Normalized fold change)?
**A.** 1.26

**Q.** And the fold induction at 10 µM (FOXO3; WI-38 cells, 10 μM, 24 hrs, n=4, qPCR normalized by B2M, read-out: GADD45A Normalized fold change)?
**A.** 7.22

**Q.** What about the fold induction at 10 µM (FOXO3; WI-38 cells, 10 μM, 24 hrs, n=4, qPCR normalized by B2M, read-out: SESN1 Normalized fold change) of the same compound?
**A.** 0.799

**Q.** And the fold induction at 10 µM (FOXO3; fold change, qPCR, WI-38 cells, 10 μM, 24 hrs, read-out: Summary of effects on FOXO3-regulated genes: GADD45A)?
**A.** 7.22

**Q.** And the fold induction at 10 µM (FOXO3; fold change, qPCR, WI-38 cells, 10 μM, 24 hrs, read-out: Summary of effects on FOXO3-regulated genes: TXNIP)?
**A.** 0.07

**Q.** What about the fold induction at 10 µM (FOXO3; qPCR, WI-38 cells, 10 μM, n=4, 24 hrs, normalized by B2M, read-out: CAT Normalized fold change) of the same compound?
**A.** 0.89

**Q.** What about the fold induction at 10 µM (FOXO3; qPCR, WI-38 cells, 10 μM, n=4, 24 hrs, normalized by B2M, read-out: SOD2 Normalized fold change) of the same compound?
**A.** 2.04

**Q.** And the fold induction at 10 µM (FOXO3; qPCR, WI-38 cells, 10 μM, n=4, 24 hrs, normalized by B2M, read-out: TXNIP Normalized fold change)?
**A.** 0.071

**Q.** What about the “Summary of effects on FOXO3-regulated genes: SOD2” value (FOXO3; fold change, qPCR, WI-38 cells, 10 μM, 24 hrs) of the same compound?
**A.** SOD2 2.04

**Q.** What about the “K = Sestrin induction” value (FOXO3; score) of the same compound?
**A.** 0

**Q.** And the “E = Potential FOXO3 Activation” value (FOXO3; summary score)?
**A.** 2

**Q.** And the “H2O2-resistance assay, 1st experiment” value (C. elegans)?
**A.** YES;

**Q.** What about the “L = H2O2-resistance in worms” value (C. elegans) of the same compound?
**A.** 0

**Q.** What about the “N = H2O2-resistance in woms” value (C. elegans) of the same compound?
**A.** 0

**Q.** And the “D = Triple resistant” value ([3]; 2-point score, multiplex resistance (cadmium, MMS, H2O2))?
**A.** 0

**Q.** What about the “S = Sum of Negative scores” value ([3]; human) of the same compound?
**A.** 1

**Q.** And the “C = H2O2- & Cd-resistant” value ([3]; score, resistance to both H2O2 and cadmium)?
**A.** 0

**Q.** What about the H2O2-resistant (WI-38 cells [4]; WI-38 cells, 10 μM, (*) = compromised ability to protect cells from H2O2, could be due to stability issue) of the same compound?
**A.** YES (*)

**Q.** What about the “No H2O2 stress treatment, at 10 uM (fold change)” value (WI-38 cells [4]; WI-38 cells, no H2O2 stress, 10 uM, normalized ATP measurement) of the same compound?
**A.** 0.76 fold change

**Q.** What about the “Assay 1: H2O2-resistant” value (WI-38 cells [4]; YES/NO, if NO, possibly due to repeated freezing/thawing of stocks) of the same compound?
**A.** YES

**Q.** What about the H2O2-resistant (WI-38 cells [4]; asterisks indicate the loss of the ability to protect cells from H2O2 over time) of the same compound?
**A.** YES (*)

**Q.** And the pEC50 (WI-38 cells [4]; derived from dose response curves, 0.6-20 uM, H2O2-resistance of WI-38 cells)?
**A.** 5.31

**Q.** And the pEC50 (WI-38 cells [4]; read-out: Est. ED50, dose response 0.6-20 μM, H2O2-resistance)?
**A.** 5.31
